According to patent US6787561B1, “Benzimidazole compounds” (Fuji Photo Film Co., Ltd., priority 1999, dated 2004):
Where two headings read alike, the source gives them in different places.

How the values were obtained:
[1] = test system: mouse peritoneal macrophages; assay: Suppression of foaming of macrophages: cholesterol ester yield in mouse peritoneal macrophages loaded with liposomes; assay type: cell-based; conditions: for activity at 5 µM: Mus musculus, Peritoneal macrophage, 16 h, read-out: CE yield (%)
Protocol: Activity of the compounds of the present invention for suppressing the foaming of macrophages, which triggers arterial sclerosis, was examined.
(1) In vitro experiment using mouse peritoneal macrophages,
15-Week old female ICR mice (Nippon SLC) were subjected to bleeding by cutting off their cervicalis, and Hanks buffer (Nippon Seiyaku) was injected into their peritoneal cavities. After abdominal regions of the mice were massaged, the buffer was recovered immediately, and then the resulting buffer was centrifuged at 1,000 r.p.m. for five minutes to collect peritoneal macrophages. Then, the collected macrophages were suspended in GTI medium (Wako Pure Chemical Industries), and inoculated onto a 24-well microtiter plate. After the macrophages were cultivated at 37° C. under 5% CO2 for two hours, the culture medium was changed with Dulbecco Modified Eagle Medium (MEM, Nippon Seiyaku). The macrophages were further cultivated at 37° C. under 5% CO2 for 16 hours, and then a test compound and liposomes were added to the culture.
1) Test compound: dissolved in DMSO (Wako Pure Chemical Industries),
2) Liposomes: PC/PS/DCP/CHOL=50/50/10/75 (nmol)
After cultivation was further continued at 37° C. under 5% CO2 for 16 hours, lipid fraction was extracted with chloroform and methanol. The extracted lipid fraction was dissolved in isopropyl alcohol, and the produced cholesterol ester (CE) was quantified by an enzymatic luminescence method. Yield of the cholesterol ester was calculated as a relative ratio based on yield of the control as 100% where no test compound was added.

[2] = AUC (area under the plasma concentration) after oral administration to mice
Protocol: (§1) The compounds of the present invention were orally administered to mice to evaluate AUC (area under the plasma concentration).
(§2) 8-week old BALB/cA male mice (Charles River Japan) were conditioned for one week after arrival and then used. Each test substance was dispersed in a medium containing 10% macrogol (Yoshida Seiyaku) and 90% physiological saline (Hikari Seiyaku) to prepare 5 mg/ml test substance suspension. Each prepared suspension was orally administered to 6 mice (30 mg/kg) at the same time, and cervical spine of one mouse was dislocated at each time, i.e., immediately after the administration, and 30 minutes, 1 hour, 2 hours, 4 hours and 6 hours after the administration. The whole blood was collected from abdominal aorta and blood level of the test substance was determined by liquid chromatography.

[3] = mouse, in vivo, po, 30 mg/kg
Protocol: as §1, §2

[4] = test compound 5 μM, cholesterol ester yield relative to control without test compound = 100%, smaller value = more potent suppression
[5] = male, BALB/cA, mouse, plasma, po, 30 mg/kg

Row | Molecule | activity at 5 µM [1, 4] [%] | AUC [2, 5] [ng·h/mL] | further results
1 | 2-(5-(1-phenyltetrazolyl-5-oxy)pentylthio)benzimidazole [Compound 2] | – | – | CE yield (%) [1]: 21%; AUC ([2]; oral 30 mg/kg suspension, BALB/cA male mice, blood level 0 to 6 hours by liquid chromatography): 1220 ng·h/mL
2 | c1ccc(OCCCCCSc2nc3ccccc3[nH]2)nc1 [Compound 1, 2-(5-(2-pyridyloxy)pentylthio)benzimidazole] | 4.1 | 340 | –
3 | c1ccc2[nH]c(SCCCCCOc3nccs3)nc2c1 [Compound 5] | 11 | 100 | –
4 | c1cnc(OCCCCCSc2nc3ccccc3[nH]2)nc1 [Compound 6] | 12 | 680 | –
5 | Cn1c(OCCCCCSc2nc3ccccc3[nH]2)nc2ccccc21 [Compound 9] | 6.2 | 110 | –
6 | c1ccc(OCCCCCCCCSc2nc3ccccc3[nH]2)nc1 [Compound 10, 2-(8-(2-pyridyloxy)octylthio)benzimidazole] | 12 | – | –
7 | c1ccc(OCCCCSc2nc3ccccc3[nH]2)nc1 [Compound 11, 2-(4-(2-pyridyloxy)butylthio)benzimidazole] | 18 | 240 | –
8 | c1ccc(OCCCCCCSc2nc3ccccc3[nH]2)nc1 [Compound 12, 2-(6-(2-pyridyloxy)hexylthio)benzimidazole] | 13 | – | –
9 | c1ccc(OCCCCCCCSc2nc3ccccc3[nH]2)nc1 [Compound 13, 2-(7-(2-pyridyloxy)heptylthio)benzimidazole] | 20 | 150 | –
10 | Clc1cc2nc(SCCCCCOc3ccccn3)[nH]c2cc1Cl [Compound 15, 5,6-dichloro-2-(5-(2-pyridyloxy)pentylthio)benzimidazole] | 18 | 680 | –
11 | Cc1ccc2nc(SCCCCCOc3ccccn3)[nH]c2c1 [Compound 16, 5-methyl-2-(5-(2-pyridyloxy)pentylthio)benzimidazole] | 14 | 1410 | –
12 | COc1ccc2nc(SCCCCCOc3ccccn3)[nH]c2c1 [Compound 17, 5-methoxy-2-(5-(2-pyridyloxy)pentylthio)benzimidazole] | 14 | 1220 | –
13 | CC(=O)Nc1ccc2nc(SCCCCCOc3ccccn3)[nH]c2c1 [Compound 18, 5-acetylamino-2-(5-(2-pyridyloxy)pentylthio)benzimidazole] | 19 | – | –
14 | c1ccc2[nH]c(SCCCCCOc3ccncc3)nc2c1 [Compound 19, 2-(5-(4-pyridyloxy)pentylthio)benzimidazole] | 4.2 | 5520 | –
15 | C=C(C)n1c(OCCCCCSc2nc3ccccc3[nH]2)nc2ccccc21 [Compound 20, 2-(5-(2-benzimidazolylthio)pentyloxy)-1-isopropenyl-benzimidazole] | 22 | – | –
16 | c1ccc2[nH]c(OCCCCCSc3nc4ccccc4[nH]3)nc2c1 [Compound 21, 2-(5-(2-benzimidazolylthio)pentyloxy)benzimidazole] | 18 | 2420 | –
17 | Cn1c(SCCCCCOc2ccccn2)nc2ccccc21 [Compound 23, 1-Methyl-2-(5-(2-pyridyloxy)pentylthio)benzimidazole] | 21 | 860 | –
18 | CCC(=O)n1c(SCCCCCOc2ccccn2)nc2ccccc21 [Compound 24, 1-Propionyl-2-(5-(2-pyridyloxy)pentylthio)benzimidazole] | 25 | – | –
19 | c1ccc2[nH]c(SCCCCCCOc3ccncc3)nc2c1 [Compound 25, 2-(6-(4-pyridyloxy)hexylthio)benzimidazole] | 2.8 | 1210 | –
20 | COCn1c(SCCCCCNc2cnccn2)nc2ccccc21 [Compound 28, 1-methoxymethyl-2-(5-(N-(2-pyrazyl)amino)pentylthio)-benzimidazole] | – | – | CE yield (%) [1, 4]: 24%; AUC [3]: 410 ng·h/mL
21 | c1ccc2[nH]c(SCCCCCNc3nc[nH]n3)nc2c1 [Compound 29, 2-(5-(3-(1,2,4-triazyl)amino)pentylthio)benzimidazole] | – | – | CE yield (%) [1, 4]: 12%; AUC [3]: 180 ng·h/mL
22 | c1ccc2[nH]c(SCCCCCNc3nc4ccccc4s3)nc2c1 [Compound 30, 2-(5-(2-benzothiazolylamino)pentylthio)benzimidazole] | 4.2 | 230 | –
23 | c1ccc2[nH]c(SCCCCCCNc3nc4ccccc4o3)nc2c1 [Compound 32, 2-(6-(2-benzoxazolylamino)hexylthio)benzimidazole] | 12 | – | –
24 | c1ccc2[nH]c(SCCOCCNc3nc4ccccc4o3)nc2c1 [Compound 35, 2-(2-(2-(2-benzoxazolylamino)ethoxy)ethylthio)-benzimidazole] | 9.7 | – | –
25 | c1ccc2[nH]c(SCCOCCOCCNc3nc4ccccc4o3)nc2c1 [Compound 36, 2-(2-(2-(2-(2-benzoxazolylamino)ethoxy)ethoxy)ethylthio)-benzimidazole] | 12 | 680 | –
